“Also recorded” adds a separate entry of the source.
Legend:
PDE2 = PDE2 (Homo sapiens, UniProt O00408); assay: In vitro PDE2 enzymatic inhibition assay (Bio-cAMP substrate, AlphaScreen detection); format: biochemical; settings: for PDE2 inhibitory activity (result in words): enzyme level;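 on all read-outs here: enzyme reaction run 0.5 h, then anti-cAMP acceptor and streptavidin donor beads added for 1 h in the dark before plate reading, compounds serially diluted from DMSO stock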
Experimental: Preparation of 1*Rection Buffer: we took 1 mL 10*Rection Buffer, added 9 mL ultra-pure water to swirl and mix well, and put it on ice; preparation of PDE2 solution: 210 μL of 1*Rection Buffer were added into a centrifuge tube, then 30 μL PDE2 were added, mixed well, equal to 8-times dilution, and placed on ice; preparation of compound solution with gradient concentration: DMSO was used as the solvent to prepare 10 mM compound solution, and then diluted with 1*Rection Buffer.
We took 2 μL of the diluted compound solution of each concentration into the microplate, added 4 μL PDE2 solution, numbered them A1–A9, added 2 μL 1*Rection Buffer and 4 μL PDE2 into A10, added 2 μL compound solution and 4 μL 1*Rection Buffer to A11, added 6 μL 1*Rection Buffer to A13, and ensured the three groups are parallel to each other. […] The reaction time was 0.5 h in the microporous plate thermostatic oscillator.
Anti-Camp Alohascreen Acceptor and Streptavidin Coated Donor Bead were purchased from Perkin Elmer Company according to response volume: 1* Immunoassay Buffer 549.32 μL and 3.70 μL anti-cAMP AlohaScreen Acceptor were collected under dark conditions. We took 1.98 μL Streptavidin coated Donor Bead, mixed well, added 15 μL mixture to each well after 1 h reaction, and reacted it in the dark for 1 h. After the reaction, we tested it with multilabel microplate detector.

[1] = in vitro, Bio-cAMP as substrate, mean of at least three experiments

PDE2, sequence (O00408 whole entry): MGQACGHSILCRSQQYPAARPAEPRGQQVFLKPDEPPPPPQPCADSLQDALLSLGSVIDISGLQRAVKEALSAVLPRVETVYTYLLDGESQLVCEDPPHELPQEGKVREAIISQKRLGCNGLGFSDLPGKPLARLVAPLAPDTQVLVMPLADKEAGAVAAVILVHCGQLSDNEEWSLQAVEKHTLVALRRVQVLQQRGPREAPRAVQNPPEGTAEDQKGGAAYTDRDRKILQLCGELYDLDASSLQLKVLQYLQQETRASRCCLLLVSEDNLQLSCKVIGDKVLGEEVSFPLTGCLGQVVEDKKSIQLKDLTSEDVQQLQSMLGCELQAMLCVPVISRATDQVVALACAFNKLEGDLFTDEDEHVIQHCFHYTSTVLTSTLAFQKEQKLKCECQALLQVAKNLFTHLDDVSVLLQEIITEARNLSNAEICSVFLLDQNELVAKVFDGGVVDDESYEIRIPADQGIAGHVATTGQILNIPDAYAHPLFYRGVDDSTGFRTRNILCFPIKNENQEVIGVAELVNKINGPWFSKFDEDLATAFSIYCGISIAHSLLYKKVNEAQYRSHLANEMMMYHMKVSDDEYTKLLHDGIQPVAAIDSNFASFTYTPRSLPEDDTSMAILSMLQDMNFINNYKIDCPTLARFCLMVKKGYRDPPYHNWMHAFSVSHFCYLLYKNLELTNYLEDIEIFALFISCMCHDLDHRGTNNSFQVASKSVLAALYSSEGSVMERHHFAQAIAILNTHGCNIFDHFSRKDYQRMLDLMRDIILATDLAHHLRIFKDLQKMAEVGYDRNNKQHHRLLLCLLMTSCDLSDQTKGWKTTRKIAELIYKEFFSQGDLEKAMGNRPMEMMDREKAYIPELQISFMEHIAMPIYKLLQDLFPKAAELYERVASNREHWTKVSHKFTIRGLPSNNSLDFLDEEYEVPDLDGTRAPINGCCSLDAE

Compound | IC50 (PDE2; [1]) [µM] | melting point [°C] | PDE2 inhibitory activity (result in words) (PDE2) | PDE2 IC50 (PDE2; [1])
CC(C)Oc1ccc2c(c1)oc(=O)c1ccccc12 [Compound 1c, 3-Isopropoxy-6H-benzo[c]chromen-6-one] | 25.8 ± 5.45 | 58.7 to 59.1 |  | 
O=c1oc2cc(Oc3ncccn3)ccc2c2ccccc12 [Compound 1l, 3-(Pyrimidin-2-yloxy)-6H-benzo[c]chromen-6-one] | 19.3 ± 2.38 | 174 to 176.6 | good PDE2 inhibitory activity | 
COc1ccc2c(c1)c(=O)oc1cc(Oc3ncccn3)ccc12 [Compound 2v, 8-Methoxy-3-(pyrimidin-2-yloxy)-6H-benzo[c]chromen-6-one] |  | 212.3 to 214 |  | 
COc1ccc2c(c1)c(=O)oc1cc(OCCSC)ccc12 [Compound 2i, 8-Methoxy-3-(2-(methylthio)ethoxy)-6H-benzo[c]chromen-6-one] | 14.9 ± 1.78 | 110.1 to 111.8 | best PDE2 inhibitory activity; also recorded: good PDE2 inhibitory activity | 
COc1ccc2c(c1)c(=O)oc1cc(OCCn3cccn3)ccc12 [Compound 2w, 3-(2-(1H-pyrazol-1-yl)ethoxy)-8-methoxy-6H-benzo[c]chromen-6-one] | > 50 | 159 to 161.1 |  | 
O=c1oc2cc(OCC3CCOCC3)ccc2c2ccccc12 [Compound 1i, 3-((tetrahydro-2H-pyran-4-yl)methoxy)-6H-benzo[c]chromen-6-one] | 17.9 ± 1.87 | 133 to 134.8 | good PDE2 inhibitory activity | 
COc1cc(COc2ccc3c(c2)oc(=O)c2ccccc23)cc(OC)c1 [Compound 1p, 3-((3,5-Dimethoxybenzyl)oxy)-6H-benzo[c]chromen-6-one] | > 50 | 133.8 to 135 |  | 
O=c1oc2cc(OCc3cccnc3)ccc2c2ccccc12 [Compound 1r, 3-(Pyridin-3-ylmethoxy)-6H-benzo[c]chromen-6-one] | 27.6 ± 2.14 |  |  | 
CCCOc1ccc2c(c1)oc(=O)c1ccccc12 [Compound 1d, 3-Propoxy-6H-benzo[c]chromen-6-one] | > 50 |  |  | 
Cc1cc(COc2ccc3c(c2)oc(=O)c2ccccc23)n(C)n1 [Compound 1q, 3-((1,3-Dimethyl-1H-pyrazol-5-yl)methoxy)-6H-benzo[c]chromen-6-one] | > 50 | 165.1 to 167.6 |  | 
CCCCOc1ccc2c(c1)oc(=O)c1cc(OC)ccc12 [Compound 2e, 3-Butoxy-8-methoxy-6H-benzo[c]chromen-6-one] | 17.8 ± 4.07 | 102.5 to 104.4 | good PDE2 inhibitory activity | 
CCCOc1ccc2c(c1)oc(=O)c1cc(OC)ccc12 [Compound 2c, 8-Methoxy-3-propoxy-6H-benzo[c]chromen-6-one] | > 50 | 109.3 to 111.6 |  | 
COc1cc(COc2ccc3c(c2)oc(=O)c2cc(OC)ccc23)cc(OC)c1 [Compound 2s, 3-((3,5-Dimethoxybenzyl)oxy)-8-methoxy-6H-benzo[c]chromen-6-one] | > 50 | 153.6 to 155.3 |  | 
O=c1oc2cc(OCC3CCCC3)ccc2c2ccccc12 [Compound 1s, 3-(Cyclopentylmethoxy)-6H-benzo[c]chromen-6-one] | 8.14 ± 0.54 | 90.6 to 91.2 | good PDE2 inhibitory activity | 
COc1ccc2c(c1)c(=O)oc1cc(OC(C)C)ccc12 [Compound 2g, 3-Isopropoxy-8-methoxy-6H-benzo[c]chromen-6-one] | 30.3 ± 7.38 | 88.3 to 90.7 |  | 
O=c1oc2cc(OCCN3CCOCC3)ccc2c2ccccc12 [Compound 1u, 3-(2-Morpholinoethoxy)-6H-benzo[c]chromen-6-one] | > 50 | 100.8 to 102.8 |  | 
COc1ccc2c(c1)c(=O)oc1cc(OCC3CCOCC3)ccc12 [Compound 2p, 8-Methoxy-3-((tetrahydro-2H-pyran-4-yl)methoxy)-6H-benzo[c]chromen-6-one] | 25.2 ± 6.91 | 168.1 to 168.5 |  | 
O=c1oc2cc(OCCn3cccn3)ccc2c2ccccc12 [Compound 1k, 3-(2-(1H-pyrazol-1-yl)ethoxy)-6H-benzo[c]chromen-6-one] | > 50 | 164.3 to 166.6 |  | 
CCCCCOc1ccc2c(c1)oc(=O)c1cc(OC)ccc12 [Compound 2f, 8-Methoxy-3-(pentyloxy)-6H-benzo[c]chromen-6-one] | > 50 | 73.1 to 75.5 |  | 
CCC(C)Oc1ccc2c(c1)oc(=O)c1ccccc12 (centres unmarked) [Compound 1e, 3-(Sec-butoxy)-6H-benzo[c]chromen-6-one] | 37.7 ± 4.9 | 73.2 to 75.8 |  | 
COc1ccc2c(c1)c(=O)oc1cc(OCC3CCCC3)ccc12 [Compound 2k, 3-(Cyclopentylmethoxy)-8-methoxy-6H-benzo[c]chromen-6-one] | > 50 |  |  | 

Compound | IC50 (PDE2; [1]) [µM] | melting point [°C] | PDE2 inhibitory activity (result in words) (PDE2) | PDE2 IC50 (PDE2; [1])
COc1ccc2c(c1)c(=O)oc1cc(OCCC3OCCO3)ccc12 [Compound 2o, 3-(2-(1,3-Dioxolan-2-yl)ethoxy)-8-methoxy-6H-benzo[c]chromen-6-one] | > 50 | 151.6 to 153.2 |  | 
CCC(C)Oc1ccc2c(c1)oc(=O)c1cc(OC)ccc12 (centres unmarked) [Compound 2d, 3-(Sec-butoxy)-8-methoxy-6H-benzo[c]chromen-6-one] | > 50 | 64.5 to 66.7 |  | 
O=c1oc2cc(OCCO)ccc2c2ccccc12 [Compound 1m, 3-(2-Hydroxyethoxy)-6H-benzo[c]chromen-6-one] | > 50 | 125.7 to 126.4 |  | 
COc1ccc2c(c1)c(=O)oc1cc(OCC3CCCCC3)ccc12 [Compound 2n, 3-(Cyclohexylmethoxy)-8-methoxy-6H-benzo[c]chromen-6-one] | > 50 | 139.8 to 140.1 |  | 
COc1ccc2c(c1)c(=O)oc1cc(OCc3cc(C)nn3C)ccc12 [Compound 2u, 3-((1,3-Dimethyl-1H-pyrazol-5-yl)methoxy)-8-methoxy-6H-benzo[c]chromen-6-one] | 29.4 ± 5.01 | 184.6 to 186.6 |  | 
COc1ccc2c(c1)oc(=O)c1cc(OC)ccc12 [Compound 2a, 3,8-Dimethoxy-6H-benzo[c]chromen-6-one] | > 50 |  |  | 
COc1ccc2c(c1)c(=O)oc1cc(OCC3OCCO3)ccc12 [Compound 2m, 3-((1,3-Dioxolan-2-yl)methoxy)-8-methoxy-6H-benzo[c]chromen-6-one] | > 50 | 147.9 to 150.1 |  | 
CCOC(=O)COc1ccc2c(c1)oc(=O)c1cc(OC)ccc12 [Compound 2j, Ethyl 2-((8-methoxy-6-oxo-6H-benzo[c]chromen-3-yl)oxy)acetate] | > 50 |  |  | 
COc1ccc2c(c1)c(=O)oc1cc(OCc3ccccc3)ccc12 [Compound 2q, 3-(Benzyloxy)-8-methoxy-6H-benzo[c]chromen-6-one] | 23.3 ± 4.28 | 141.7 to 142.5 |  | 
O=c1oc2cc(OCC3OCCO3)ccc2c2ccccc12 [Compound 1o, 3-((1,3-Dioxolan-2-yl)methoxy)-6H-benzo[c]chromen-6-one] | > 50 | 135.6 to 137.8 |  | 
COc1ccc2c(c1)c(=O)oc1cc(OCc3ccccc3F)ccc12 [Compound 2t, 3-((2-Fluorobenzyl)oxy)-8-methoxy-6H-benzo[c]chromen-6-one] |  | 203.6 to 204.9 |  | Insoluble
CCCCCOc1ccc2c(c1)oc(=O)c1ccccc12 [Compound 1g, 3-(pentyloxy)-6H-benzo[c]chromen-6-one] | > 50 | 69.4 to 71.8 |  | 
CCOC(=O)COc1ccc2c(c1)oc(=O)c1ccccc12 [Compound 1h, ethyl 2-((6-oxo-6H-benzo[c]chromen-3-yl)oxy)acetate] | 18.7 ± 2.72 | 124.7 to 125.8 | good PDE2 inhibitory activity | 
O=c1oc2cc(OCc3ccc(CO)cc3)ccc2c2ccccc12 [Compound 1t, 3-((4-[Hydroxymethyl]benzyl)oxy)-6H-benzo[c]chromen-6-one] | > 50 | 147 to 149.2 |  | 
COc1ccc2c(c1)oc(=O)c1ccccc12 [Compound 1a, 3-Methoxy-6H-benzo[c]chromen-6-one] | 28.8 ± 7.8 |  |  | 
COc1ccc2c(c1)c(=O)oc1cc(OCC3CCCO3)ccc12 (centres unmarked) [Compound 2l, 8-Methoxy-3-((tetrahydrofuran-2-yl)methoxy)-6H-benzo[c]chromen-6-one] | > 50 | 113.1 to 115.5 |  | 
O=c1oc2cc(OCC3CCCO3)ccc2c2ccccc12 (centres unmarked) [Compound 1n, 3-((Tetrahydrofuran-2-yl)methoxy)-6H-benzo[c]chromen-6-one] | 27.5 ± 1.49 | 82.8 to 84.1 |  | 
COc1ccc2c(c1)c(=O)oc1cc(OCCO)ccc12 [Compound 2h, 3-(2-Hydroxyethoxy)-8-methoxy-6H-benzo[c]chromen-6-one] | > 50 | 166.8 to 168 |  | 
CCOc1ccc2c(c1)oc(=O)c1cc(OC)ccc12 [Compound 2b, 3-Ethoxy-8-methoxy-6H-benzo[c]chromen-6-one] | > 50 | 141.1 to 143.8 |  | 
CCOc1ccc2c(c1)oc(=O)c1ccccc12 [Compound 1b, Ethoxy-6H-benzo[c]chromen-6-one] | 25.4 ± 5.13 | 115.2 to 117.7 |  | 
COc1ccc2c(c1)c(=O)oc1cc(OCc3ccc(CO)cc3)ccc12 [Compound 2r, 3-((4-[Hydroxymethyl]benzyl)oxy)-8-methoxy-6H-benzo[c]chromen-6-one] | > 50 | 192.4 to 194.6 |  | 

From publication PMC8199001, “Design, Synthesis, and Biological Evaluation of Novel 6H-Benzo[c]chromen-6-one Derivatives as Potential Phosphodiesterase II Inhibitors” (International Journal of Molecular Sciences, 2021)
